Laboratory results as given in ChEMBL document CHEMBL2375284, “Novel hybrids of natural isochroman-4-one bearing N-substituted isopropanolamine as potential antihypertensive candidates” (Bioorg Med Chem, 2013).

Assays:
[1] = test system: Rattus norvegicus; assay: Toxicity in rat spontaneous hypertensive model assessed as heart rate at 80 mg/kg, po measured at 1 hr by tail-cuff method (reference value: 403.9 +/- 12.41 bpm); assay type: organism-based; set-up: dose 80 mg/kg, route oral; conditions: in vivo
[2] = test system: Rattus norvegicus; assay: Antihypertensive activity in rat spontaneous hypertensive model assessed as diastolic arterial blood pressure at 80 mg/kg, po measured at 1 hr by tail-cuff method (reference value: 146.2 +/- 13.19 mmHg); assay type: functional, Artery
[3] = test system: Rattus norvegicus; assay: Antihypertensive activity in rat spontaneous hypertensive model assessed as diastolic arterial blood pressure at 80 mg/kg, po measured at 6 hrs by tail-cuff method (reference value: 141.2 +/- 7.34 mmHg); assay type: functional, Artery
[4] = test system: Rattus norvegicus; assay: Antihypertensive activity in rat spontaneous hypertensive model assessed as diastolic arterial blood pressure at 80 mg/kg, po measured at 8 hrs by tail-cuff method (reference value: 135.3 +/- 8.21 mmHg); assay type: functional, Artery
[5] = test system: Rattus norvegicus; assay: Antihypertensive activity in rat spontaneous hypertensive model assessed as mean arterial blood pressure at 80 mg/kg, po measured at 0.5 hrs by tail-cuff method (reference value: 156.2 +/- 7.21 mmHg); assay type: functional, Artery
[6] = test system: Rattus norvegicus; assay: Toxicity in rat spontaneous hypertensive model assessed as heart rate at 80 mg/kg, po measured at 6 hrs by tail-cuff method (reference value: 405.1 +/- 24 bpm); assay type: organism-based; set-up: dose 80 mg/kg, route oral; conditions: in vivo
[7] = test system: Rattus norvegicus; assay: Antihypertensive activity in rat spontaneous hypertensive model assessed as mean arterial blood pressure at 80 mg/kg, po measured at 2 hrs by tail-cuff method (reference value: 157.41 +/- 9.62 mmHg); assay type: functional, Artery
[8] = test system: Rattus norvegicus; assay: Antihypertensive activity in rat spontaneous hypertensive model assessed as diastolic arterial blood pressure at 80 mg/kg, po measured at 4 hrs by tail-cuff method (reference value: 141.4 +/- 7.11 mmHg); assay type: functional, Artery
[9] = test system: Rattus norvegicus; assay: Antihypertensive activity in rat spontaneous hypertensive model assessed as mean arterial blood pressure at 80 mg/kg, po measured at 8 hrs by tail-cuff method (reference value: 155.8 +/- 11.54 mmHg); assay type: functional, Artery
[10] = test system: Rattus norvegicus; assay: Toxicity in rat spontaneous hypertensive model assessed as heart rate at 80 mg/kg, po measured at 4 hrs by tail-cuff method (reference value: 403.1 +/- 15.92 bpm); assay type: organism-based; set-up: dose 80 mg/kg, route oral; conditions: in vivo
[11] = test system: Rattus norvegicus; assay: Antihypertensive activity in rat spontaneous hypertensive model assessed as mean arterial blood pressure at 80 mg/kg, po measured at 1 hr by tail-cuff method (reference value: 158.9 +/- 13.65 mmHg); assay type: functional, Artery
[12] = test system: Rattus norvegicus; assay: Antihypertensive activity in rat spontaneous hypertensive model assessed as systolic arterial blood pressure at 80 mg/kg, po measured at 4 hrs by tail-cuff method (reference value: 172.9 +/- 10.21 mmHg); assay type: functional, Artery
[13] = test system: Rattus norvegicus; assay: Antihypertensive activity in rat spontaneous hypertensive model assessed as mean arterial blood pressure at 80 mg/kg, po measured at 6 hrs by tail-cuff method (reference value: 155.8 +/- 7.97 mmHg); assay type: functional, Artery
[14] = test system: Rattus norvegicus; assay: Toxicity in rat spontaneous hypertensive model assessed as heart rate at 80 mg/kg, po measured at 0.5 hrs by tail-cuff method (reference value: 406.5 +/- 13.15 bpm); assay type: organism-based; set-up: dose 80 mg/kg, route oral; conditions: in vivo
[15] = test system: Rattus norvegicus; assay: Antihypertensive activity in rat spontaneous hypertensive model assessed as mean arterial blood pressure at 80 mg/kg, po measured at 4 hrs by tail-cuff method (reference value: 154.4 +/- 20.1 mmHg); assay type: functional, Artery
[16] = test system: Rattus norvegicus; assay: Antihypertensive activity in rat spontaneous hypertensive model assessed as systolic arterial blood pressure at 80 mg/kg, po measured at 2 hrs by tail-cuff method (reference value: 172.6 +/- 17.3 mmHg); assay type: functional, Artery
[17] = test system: Rattus norvegicus; assay: Antihypertensive activity in rat spontaneous hypertensive model assessed as systolic arterial blood pressure at 80 mg/kg, po measured at 1 hr by tail-cuff method (reference value: 181.2 +/- 16.37 mmHg); assay type: functional, Artery
[18] = test system: Rattus norvegicus; assay: Antihypertensive activity in rat spontaneous hypertensive model assessed as systolic arterial blood pressure at 80 mg/kg, po measured at 0.5 hrs by tail-cuff method (reference value: 178.5 +/- 10.13 mmHg); assay type: functional, Artery
[19] = test system: Rattus norvegicus; assay: Antihypertensive activity in rat spontaneous hypertensive model assessed as diastolic arterial blood pressure at 80 mg/kg, po measured at 2 hrs by tail-cuff method (reference value: 142.9 +/- 18.07 mmHg); assay type: functional, Artery
[20] = test system: Rattus norvegicus; assay: Toxicity in rat spontaneous hypertensive model assessed as heart rate at 80 mg/kg, po measured at 2 hrs by tail-cuff method (reference value: 399.5 +/- 19.68 bpm); assay type: organism-based; set-up: dose 80 mg/kg, route oral; conditions: in vivo
[21] = test system: Rattus norvegicus; assay: Antihypertensive activity in rat spontaneous hypertensive model assessed as systolic arterial blood pressure at 80 mg/kg, po measured at 6 hrs by tail-cuff method (reference value: 176.7 +/- 15.21 mmHg); assay type: functional, Artery
[22] = test system: Rattus norvegicus; assay: Toxicity in rat spontaneous hypertensive model assessed as heart rate at 80 mg/kg, po measured at 8 hrs by tail-cuff method (reference value: 397.2 +/- 24.87 bpm); assay type: organism-based; set-up: dose 80 mg/kg, route oral; conditions: in vivo
[23] = test system: Rattus norvegicus; assay: Antihypertensive activity in rat spontaneous hypertensive model assessed as diastolic arterial blood pressure at 80 mg/kg, po measured at 0.5 hrs by tail-cuff method (reference value: 138.7 +/- 9.2 mmHg); assay type: functional, Artery
[24] = test system: Rattus norvegicus; assay: Antihypertensive activity in rat spontaneous hypertensive model assessed as systolic arterial blood pressure at 80 mg/kg, po measured at 8 hrs by tail-cuff method (reference value: 174 +/- 12.1 mmHg); assay type: functional, Artery

Row | SMILES | Activity [1] | Activity [2] | Activity [3] | Activity [4] | Activity [5] | Activity [6] | Activity [7] | Activity [8] | Activity [9] | Activity [10] | Activity [11] | Activity [12] | Activity [13] | Activity [14] | Activity [15] | Activity [16] | Activity [17] | Activity [18] | Activity [19] | Activity [20] | further results
1 | COc1cc2c(cc1OCC(O)CNC(C)C)C(=O)C(C)OC2 (stereo not drawn) | 365.6 bpm | 113.9 mmHg | 99 mmHg | 107.7 mmHg | 134 mmHg | 355.2 bpm | 122.1 mmHg | 99.8 mmHg | 124.2 mmHg | 358.5 bpm | 128.8 mmHg | 166.6 mmHg | 121 mmHg | 367 bpm | 118.1 mmHg | 165.7 mmHg | 164.5 mmHg | 174.1 mmHg | 101 mmHg | 356.9 bpm | Activity [21]: 164.2 mmHg; Activity [22]: 367.7 bpm; Activity [23]: 113.7 mmHg; Activity [24]: 162.6 mmHg
2 | COc1cc2c(cc1OCC(O)CNC(C)C)COC(C)C2=O (stereo not drawn) | 378.3 bpm | 102.8 mmHg | 91.4 mmHg | 98 mmHg | 142.2 mmHg | 370 bpm | 103.9 mmHg | 83 mmHg | 119 mmHg | 361.4 bpm | 123.1 mmHg | 141 mmHg | 114 mmHg | 385.4 bpm | 97.8 mmHg | 152.8 mmHg | 160.9 mmHg | 169.2 mmHg | 84.1 mmHg | 365.1 bpm | Activity [21]: 150.5 mmHg; Activity [22]: 372.8 bpm; Activity [23]: 128.7 mmHg; Activity [24]: 158.3 mmHg
